Experimental data as given in article PMC11078746 (Nature, 2024).
Values joined by “and” are separate entries in the source; they are usually repeats but may differ in a detail not shown here. Identical values can stand only once.

Test system: SW48 xenografts
Assay: SW48 cell-derived xenograft efficacy, HRO761 orally once daily
Format: in vivo, mouse
Procedure: All animal studies were conducted in accordance with ethics and procedures covered by permit BS-2275 and BS-1975 issued by the Kantonales Veterinäramt Basel-Stadt and in strict adherence to guidelines of the Eidgenössisches Tierschutzgesetz and the Eidgenössische Tierschutzverordnung, Switzerland. All animal studies were approved by the internal ethics committee. All animals had access to food and water ad libitum and were identified with transponders. They were housed in a specific-pathogen-free facility in IVC racks under a 12 h–12 h light–dark cycle. To establish cell-line-derived xenograft models, 6–7-week-old female athymic nude (Crl:NU(NCr)-Foxn1^nu) or SCID-BEIGE (CB17.Cg-PrkdcscidLystbg-J/Crl) mice from Charles River were engrafted subcutaneously with 5 million tumour cells in HBSS (H6648, Sigma-Aldrich). For SNU-407, Lovo, IM95, RL95.2, Ishikawa and IGROV-1, the cells were concentrated in 50% Matrigel (354234, Corning). Patient-derived xenografts were induced and expanded by transplantation as previously described. […] For the efficacy experiment, mice were randomized into groups (n = 5–6) for a mean tumour size of 100–150 mm^3. […] Blood samples were collected on day 7 and 91. […] Tumour responses are reported with the measures of tumour volumes from the treatment start. […] Animals were randomized (n = 3) and tumour samples were collected at 0, 1, 4, 8 and 24 h on the first day and then collected 4 h after the last treatment on day 3, 8, 10, 14 (including a 24 h timepoint), 17 and 21. Tumours were excised, weighed, either frozen in liquid nitrogen and cryogenic dry pulverized with the CryoPrep system (model CP-02, Covaris) or processed to FFPE after fixation. […] On day 12, blood samples were collected for PK analysis. On the last day (3 h after the last treatment), tumours were excised, weighed, frozen in liquid nitrogen and cryogenic dry pulverized for PD analysis.

With `CCc1c(N2CCN(C(=O)c3ncnc(C)c3O)CC2)c(=O)n2nc(C3=CCOCC3)nc2n1CC(=O)Nc1ccc(C(F)(F)F)cc1Cl` [HRO761] the “max Reg (%) or max T/C (%)” value (10 mg/kg) was 94.00%, the tumour response (20 mg per kg, once daily oral) was “tumour stasis” and the “max Reg (%) or max T/C (%)” value (20 mg/kg) was 6.00%. The “max Reg (%) or max T/C (%)” value (30 mg/kg) was -69.00%, the “max Reg (%) or max T/C (%)” value (40 mg/kg) was -75.00% and the “max Reg (%) or max T/C (%)” value (60 mg/kg) was -85.00%. For the same compound, the “max Reg (%) or max T/C (%)” value (120 mg/kg) was -89.00%, the “Mean TVol” value (HRO761 20mg/kg, day 0 post 1st dose) was 148.57 mm3 and the “Mean TVol” value (HRO761 20mg/kg, day 3 post 1st dose) was 172.19 mm3. The “Mean TVol” value (HRO761 20mg/kg, day 7 post 1st dose) was 214.06 mm3, the “Mean TVol” value (HRO761 20mg/kg, day 10 post 1st dose) was 199.01 mm3 and the “Mean TVol” value (HRO761 20mg/kg, day 14 post 1st dose) was 193.54 mm3. For the same compound, the “TVol, individual mouse” value (HRO761 20mg/kg, day 14 post 1st dose, 20 mg/kg) was 183.48 mm3 and 119.53 mm3 and 120.69 mm3 and 296.11 mm3 and 247.89 mm3, the “Mean TVol” value (HRO761 20mg/kg, day 17 post 1st dose) was 171.07 mm3 and the “TVol, individual mouse” value (HRO761 20mg/kg, day 17 post 1st dose, 20 mg/kg) was 183.94 mm3 and 118.26 mm3 and 128.1 mm3 and 182.42 mm3 and 242.62 mm3. The “Mean TVol” value (HRO761 20mg/kg, day 21 post 1st dose) was 210.51 mm3, the “TVol, individual mouse” value (HRO761 20mg/kg, day 21 post 1st dose, 20 mg/kg) was 237.44 mm3 and 188.88 mm3 and 167.52 mm3 and 218.78 mm3 and 239.95 mm3 and the “Mean TVol” value (HRO761 20mg/kg, day 24 post 1st dose) was 217.13 mm3. For the same compound, the “TVol, individual mouse” value (HRO761 20mg/kg, day 24 post 1st dose, 20 mg/kg) was 213.9 mm3 and 149.74 mm3 and 186.94 mm3 and 199.91 mm3 and 335.14 mm3, the “Mean TVol” value (HRO761 20mg/kg, day 28 post 1st dose) was 270.81 mm3 and the “TVol, individual mouse” value (HRO761 20mg/kg, day 28 post 1st dose, 20 mg/kg) was 244.97 mm3 and 189.99 mm3 and 254.46 mm3 and 269.33 mm3 and 395.3 mm3. The “Mean TVol” value (HRO761 20mg/kg, day 31 post 1st dose) was 317.23 mm3, the “Mean TVol” value (HRO761 20mg/kg, day 35 post 1st dose) was 380.57 mm3 and the “Mean TVol” value (HRO761 20mg/kg, day 38 post 1st dose) was 438.75 mm3. The “Mean TVol” value (HRO761 20mg/kg, day 42 post 1st dose) was 626.99 mm3, the “Mean TVol” value (HRO761 20mg/kg, day 45 post 1st dose) was 658.99 mm3 and the “Mean TVol” value (HRO761 40mg/kg, day 0 post 1st dose) was 148.59 mm3. The “Mean TVol” value (HRO761 40mg/kg, day 3 post 1st dose) was 162.25 mm3, the “Mean TVol” value (HRO761 40mg/kg, day 7 post 1st dose) was 181.10 mm3 and the “Mean TVol” value (HRO761 40mg/kg, day 10 post 1st dose) was 146.66 mm3. The “Mean TVol” value (HRO761 40mg/kg, day 14 post 1st dose) was 133.58 mm3, the “TVol, individual mouse” value (HRO761 40mg/kg, day 14 post 1st dose, 40 mg/kg) was 137.47 mm3 and 92.79 mm3 and 146.32 mm3 and 135.46 mm3 and 155.86 mm3 and the “Mean TVol” value (HRO761 40mg/kg, day 17 post 1st dose) was 95.84 mm3. For the same compound, the “TVol, individual mouse” value (HRO761 40mg/kg, day 17 post 1st dose, 40 mg/kg) was 84.05 mm3 and 68.24 mm3 and 117.68 mm3 and 91.67 mm3 and 117.57 mm3, the “Mean TVol” value (HRO761 40mg/kg, day 21 post 1st dose) was 84.88 mm3 and the “TVol, individual mouse” value (HRO761 40mg/kg, day 21 post 1st dose, 40 mg/kg) was 65.27 mm3 and 62.26 mm3 and 114.98 mm3 and 87.79 mm3 and 94.1 mm3. For the same compound, the “Mean TVol” value (HRO761 40mg/kg, day 24 post 1st dose) was 52.61 mm3, the “TVol, individual mouse” value (HRO761 40mg/kg, day 24 post 1st dose, 40 mg/kg) was 40.05 mm3 and 34.46 mm3 and 63.81 mm3 and 55.22 mm3 and 69.51 mm3 and the “Mean TVol” value (HRO761 40mg/kg, day 28 post 1st dose) was 44.44 mm3. The “TVol, individual mouse” value (HRO761 40mg/kg, day 28 post 1st dose, 40 mg/kg) was 41.72 mm3 and 27.23 mm3 and 46.41 mm3 and 45.86 mm3 and 60.97 mm3, the “Mean TVol” value (HRO761 40mg/kg, day 31 post 1st dose) was 37.24 mm3 and the “Mean TVol” value (HRO761 40mg/kg, day 35 post 1st dose) was 32.88 mm3. For the same compound, the “Mean TVol” value (HRO761 40mg/kg, day 38 post 1st dose) was 33.30 mm3, the “Mean TVol” value (HRO761 40mg/kg, day 42 post 1st dose) was 36.90 mm3 and the “Mean TVol” value (HRO761 40mg/kg, day 45 post 1st dose) was 34.79 mm3. The “Mean TVol” value (HRO761 40mg/kg, day 49 post 1st dose) was 37.27 mm3, the “Mean TVol” value (HRO761 40mg/kg, day 52 post 1st dose) was 35.78 mm3 and the “Mean TVol” value (HRO761 40mg/kg, day 56 post 1st dose) was 46.42 mm3. For the same compound, the “Mean TVol” value (HRO761 40mg/kg, day 59 post 1st dose) was 55.91 mm3, the “Mean TVol” value (HRO761 40mg/kg, day 63 post 1st dose) was 77.49 mm3 and the “Mean TVol” value (HRO761 40mg/kg, day 66 post 1st dose) was 84.81 mm3. For the same compound, the “Mean TVol” value (HRO761 40mg/kg, day 70 post 1st dose) was 105.06 mm3, the “Mean TVol” value (HRO761 40mg/kg, day 73 post 1st dose) was 118.43 mm3 and the “Mean TVol” value (HRO761 40mg/kg, day 76 post 1st dose) was 139.13 mm3. The “Mean TVol” value (HRO761 40mg/kg, day 79 post 1st dose) was 184.71 mm3, the “Mean TVol” value (HRO761 40mg/kg, day 83 post 1st dose) was 215.37 mm3 and the “Mean TVol” value (HRO761 40mg/kg, day 86 post 1st dose) was 261.40 mm3. The “Mean TVol” value (HRO761 40mg/kg, day 90 post 1st dose) was 329.03 mm3, the “Mean TVol” value (HRO761 40mg/kg, day 92 post 1st dose) was 334.15 mm3 and the “Mean TVol” value (HRO761 60mg/kg, day 0 post 1st dose) was 148.59 mm3. The “Mean TVol” value (HRO761 60mg/kg, day 3 post 1st dose) was 184.38 mm3, the “Mean TVol” value (HRO761 60mg/kg, day 7 post 1st dose) was 168.35 mm3 and the “Mean TVol” value (HRO761 60mg/kg, day 10 post 1st dose) was 139.22 mm3.
